Assay results from patent US20240400584A1, “COMPOUNDS AND METHODS FOR MODULATING SPLICING” (REMIX THERAPEUTICS INC., priority 2021, published 2024).

What was measured:
HTT [1] = assay: RT-qPCR splicing assay, HTT AJ/CJ mRNA; format: cell-based, human; details: Homo sapiens, 24 h, A673 or K562 cells; for IC50: decrease in canonical junction mRNA; for AC50: increase in alternative junction mRNA
Summary of the method: (§1)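 Cells: A673 (DMEM/10% FBS) or K562 (IMDM/10% FBS). Dosing: 11-pt 3-fold, top 10 uM final, DMSO ≤0.25%, 24 h, 37° C. Readout: one-step RT-qPCR on lysate, CJ vs AJ isoforms; ΔCt vs housekeeper, ΔΔCt vs DMSO, 2^(−ΔΔCt) RQ → % response.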

MYB [2] = assay: RT-qPCR splicing assay, MYB AJ/CJ mRNA; format: cell-based; details: Homo sapiens, A673 or K562 cells, 24 hours; for IC50: decrease in canonical junction mRNA; for AC50: increase in alternative junction mRNA
Summary of the method: as §1

HTT [3] = assay: Gene panel canonical junction qPCR assay, HTT CJ mRNA (Table 7); format: cell-based, human; details: Homo sapiens, read-out: HTT CJ mRNA decrease IC50
Summary of the method: (§2)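 A673/K562 cells + cpd → lysate → cDNA → qPCR, CY5 5′ nuclease probe set overlapping canonical junction. Normalized to GAPDH/GUSB/PPIA and DMSO via ΔΔCt, RQ → % response over fixed ΔCt window. IC50 = 50% CJ decrease, 4PL fit.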

SMN2 = assay: Gene panel canonical junction qPCR assay, SMN2 CJ mRNA (Table 7); format: cell-based; details: Homo sapiens, read-out: SMN2 CJ mRNA decrease IC50
Summary of the method: as §2

MYB [4] = assay: Gene panel canonical junction qPCR assay, MYB CJ mRNA (Table 7); format: cell-based; details: Homo sapiens, read-out: MYB CJ mRNA decrease IC50
Summary of the method: as §2

Target C = assay: Gene panel canonical junction qPCR assay, Target C CJ mRNA (Table 7); format: cell-based, human; details: Homo sapiens, read-out: Target C CJ mRNA decrease IC50
Summary of the method: as §2

Compound: COc1cc(-c2ccc3c(c2)COc2nc(N4CC[C@@H](N(C)C(C)(C)C)C4)ccc2-3)cnn1 [Compound 271, (3R)—N-tert-butyl-1-[8-(6-methoxypyridazin-4-yl)-6H-isochromeno [3,4-b]377yrrolid-3-yl]-N-methylpyrrolidin-3-amine]
- IC50 (HTT [1]): < 100 nM
- AC50 (HTT [1]): < 100 nM
- IC50 (MYB [2]): 100 to 1000 nM
- AC50 (MYB [2]): 100 to 1000 nM
- IC50 (HTT [3]): < 100 nM
- IC50 (SMN2): < 100 nM
- IC50 (MYB [4]): 100 to 1000 nM
- IC50 (Target C): 100 to 1000 nM

Compound: CC(C)(C)NC1CCN(c2ccc3c(n2)OCc2cc(-c4ccnnc4)ccc2-3)C1 (stereo not drawn) [Compound 272, N-tert-butyl-1-[8-(pyridazin-4-yl)-6H-isochromeno[3,4-b]pyridin-3-yl]pyrrolidin-3-amine]
- IC50 (HTT [1]): 1000 to 10000 nM
- AC50 (HTT [1]): 1000 to 10000 nM
- IC50 (MYB [2]): > 10000 nM
- AC50 (MYB [2]): > 10000 nM
- IC50 (HTT [3]): 1000 to 10000 nM
- IC50 (SMN2): 1000 to 10000 nM
- IC50 (MYB [4]): > 10000 nM
- IC50 (Target C): > 10000 nM

Compound: COc1cc(-c2ccc3c(c2)COc2nc(N(C)C4CC(C)(C)NC(C)(C)C4)ncc2-3)cnn1 [Compound 276, N-[8-(6-methoxypyridazin-4-yl)-6H-isochromeno[3,4-d]pyrimidin-3-yl]-N,2,2,6,6-pentamethylpiperidin-4-amine]
- IC50 (HTT [1]): 100 to 1000 nM
- AC50 (HTT [1]): 100 to 1000 nM
- IC50 (MYB [2]): 1000 to 10000 nM
- AC50 (MYB [2]): 1000 to 10000 nM
- IC50 (HTT [3]): 100 to 1000 nM
- IC50 (SMN2): 100 to 1000 nM
- IC50 (MYB [4]): 1000 to 10000 nM
- IC50 (Target C): 100 to 1000 nM

Compound: CN(c1ncc2c(n1)OCc1cc(-c3cnnc(O)c3)ccc1-2)C1CC(C)(C)NC(C)(C)C1 [Compound 277, 5-{3-[methyl(2,2,6,6-tetramethylpiperidin-4-yl)amino]-6H-isochromeno[3,4-d]pyrimidin-8-yl}pyridazin-3-ol]
- IC50 (HTT [1]): 100 to 1000 nM
- AC50 (HTT [1]): 100 to 1000 nM
- IC50 (MYB [2]): 1000 to 10000 nM
- AC50 (MYB [2]): 1000 to 10000 nM
- IC50 (HTT [3]): 100 to 1000 nM
- IC50 (SMN2): 100 to 1000 nM
- IC50 (MYB [4]): 1000 to 10000 nM
- IC50 (Target C): 1000 to 10000 nM

Compound: COc1cc(-c2ccc3c(c2)COc2nc(N4CC[C@@H](NC(C)(C)C)C4)ncc2-3)cnn1 [Compound 278]
- IC50 (HTT [1]): < 100 nM
- AC50 (HTT [1]): 100 to 1000 nM
- IC50 (MYB [2]): 100 to 1000 nM
- AC50 (MYB [2]): 100 to 1000 nM
- IC50 (HTT [3]): < 100 nM
- IC50 (SMN2): < 100 nM
- IC50 (MYB [4]): 100 to 1000 nM
- IC50 (Target C): 100 to 1000 nM

Compound: COc1cc(-c2ccc3c(c2)COc2nc(N4CC[C@H](NC(C)(C)C)C4)ncc2-3)cnn1 [Compound 279]
- IC50 (HTT [1]): 100 to 1000 nM
- AC50 (HTT [1]): 100 to 1000 nM
- IC50 (MYB [2]): 1000 to 10000 nM
- AC50 (MYB [2]): 1000 to 10000 nM
- IC50 (HTT [3]): 100 to 1000 nM
- IC50 (SMN2): 100 to 1000 nM
- IC50 (MYB [4]): 1000 to 10000 nM
- IC50 (Target C): 1000 to 10000 nM

Compound: COc1cc(-c2ccc3c(c2)COc2nc(N4CCC(NC5CCC5)C4)ccc2-3)cnn1 (stereo not drawn) [Compound 280, N-cyclobutyl-1-[8-(6-methoxypyridazin-4-yl)-6H-isochromeno[3,4-b]pyridin-3-yl]pyrrolidin-3-amine]
- IC50 (HTT [1]): 100 to 1000 nM
- AC50 (HTT [1]): 100 to 1000 nM
- IC50 (MYB [2]): 1000 to 10000 nM
- AC50 (MYB [2]): 100 to 1000 nM
- IC50 (HTT [3]): 100 to 1000 nM
- IC50 (SMN2): 100 to 1000 nM
- IC50 (MYB [4]): 1000 to 10000 nM
- IC50 (Target C): 100 to 1000 nM

Compound: CCC(C)(C)NC1CCN(c2ccc3c(n2)OCc2cc(-c4cnnc(OC)c4)ccc2-3)C1 (stereo not drawn) [Compound 281, 1-[8-(6-methoxypyridazin-4-yl)-6H-isochromeno[3,4-b]pyridin-3-yl]-N-(2-methylbutan-2-yl)pyrrolidin-3-amine]
- IC50 (HTT [1]): < 100 nM
- AC50 (HTT [1]): < 100 nM
- IC50 (MYB [2]): 100 to 1000 nM
- AC50 (MYB [2]): 100 to 1000 nM
- IC50 (HTT [3]): < 100 nM
- IC50 (SMN2): < 100 nM
- IC50 (MYB [4]): 100 to 1000 nM
- IC50 (Target C): 100 to 1000 nM

Compound: COc1cc(-c2ccc3c(c2)COc2nc(N4CCNCC4)ccc2-3)cnn1 [Compound 282, 3-methoxy-5-[3-(piperazin-1-yl)-6H-isochromeno[3,4-b]pyridin-8-yl] pyridazine]
- IC50 (HTT [1]): 100 to 1000 nM
- AC50 (HTT [1]): 100 to 1000 nM
- IC50 (MYB [2]): 100 to 1000 nM
- AC50 (MYB [2]): 100 to 1000 nM
- IC50 (HTT [3]): 100 to 1000 nM
- IC50 (SMN2): 100 to 1000 nM
- IC50 (MYB [4]): 100 to 1000 nM
- IC50 (Target C): 100 to 1000 nM

Compound: COc1cc(-c2ccc3c(c2)COc2nc(N4CCN5CCCC5C4)ccc2-3)cnn1 (stereo not drawn) [Compound 283]
- IC50 (HTT [1]): 100 to 1000 nM
- AC50 (HTT [1]): 1000 to 10000 nM
- IC50 (MYB [2]): 1000 to 10000 nM
- AC50 (MYB [2]): 1000 to 10000 nM
- IC50 (HTT [3]): 100 to 1000 nM
- IC50 (SMN2): 100 to 1000 nM
- IC50 (MYB [4]): 1000 to 10000 nM
- IC50 (Target C): 1000 to 10000 nM

Compound: CCc1cc(-c2ccc3c(c2)COc2nc(N4CCC(NC(C)(C)C)C4)ccc2-3)cnn1 (stereo not drawn) [Compound 284, N-tert-butyl-1-[8-(6-ethylpyridazin-4-yl)-6H-isochromeno[3,4-b]pyridin-3-yl]pyrrolidin-3-amine]
- IC50 (HTT [1]): > 10000 nM
- AC50 (HTT [1]): > 10000 nM
- IC50 (MYB [2]): > 10000 nM
- AC50 (MYB [2]): > 10000 nM
- IC50 (HTT [3]): > 10000 nM
- IC50 (SMN2): 1000 to 10000 nM
- IC50 (MYB [4]): > 10000 nM
- IC50 (Target C): > 10000 nM

Compound: COc1cc(-c2ccc3c(c2)COc2nc(N4CCC(N)CC4)ccc2-3)cnn1 [Compound 288]
- IC50 (HTT [1]): 1000 to 10000 nM
- AC50 (HTT [1]): 1000 to 10000 nM
- IC50 (MYB [2]): > 10000 nM
- AC50 (MYB [2]): > 10000 nM
- IC50 (HTT [3]): 1000 to 10000 nM
- IC50 (SMN2): 1000 to 10000 nM
- IC50 (MYB [4]): > 10000 nM
- IC50 (Target C): > 10000 nM

Compound: COc1cc(-c2ccc3c(c2)COc2cc(N4CCC(NC(C)(C)C)C4)ncc2-3)cnn1 (stereo not drawn) [Compound 289, N-(tert-butyl)-1-(8-(6-methoxypyridazin-4-yl)-6H-isochromeno [4,3-c]pyridin-3-yl)pyrrolidin-3-amine]
- IC50 (HTT [1]): 100 to 1000 nM
- AC50 (HTT [1]): 1000 to 10000 nM
- IC50 (MYB [2]): 100 to 1000 nM
- AC50 (MYB [2]): 1000 to 10000 nM
- IC50 (HTT [3]): 100 to 1000 nM
- IC50 (SMN2): < 100 nM
- IC50 (MYB [4]): 100 to 1000 nM
- IC50 (Target C): 1000 to 10000 nM

Compound: COc1cnnc(-c2ccc3c(c2)COc2nc(N4CCC(NC(C)(C)C)C4)ccc2-3)c1 (stereo not drawn) [Compound 292]
- IC50 (HTT [1]): > 10000 nM
- AC50 (HTT [1]): > 10000 nM
- IC50 (MYB [2]): > 10000 nM
- AC50 (MYB [2]): > 10000 nM
- IC50 (HTT [3]): > 10000 nM
- IC50 (SMN2): 1000 to 10000 nM
- IC50 (MYB [4]): > 10000 nM
- IC50 (Target C): 1000 to 10000 nM

Compound: CN(c1ncc2c(n1)OCc1cc(-c3cn[nH]c3)ccc1-2)[C@@H]1C[C@H]2CC[C@@H](C1)N2 [Compound 294]
- IC50 (HTT [1]): < 100 nM
- AC50 (HTT [1]): 100 to 1000 nM
- IC50 (MYB [2]): 100 to 1000 nM
- AC50 (MYB [2]): 1000 to 10000 nM
- IC50 (HTT [3]): < 100 nM
- IC50 (SMN2): 100 to 1000 nM
- IC50 (MYB [4]): 100 to 1000 nM
- IC50 (Target C): 100 to 1000 nM

Compound: COc1cc(-c2ccc3c(c2)COc2nc(N(C)[C@@H]4C[C@H]5CC[C@@H](C4)N5)ncc2-3)cnn1 [Compound 295]
- IC50 (HTT [1]): < 100 nM
- AC50 (HTT [1]): < 100 nM
- IC50 (MYB [2]): 100 to 1000 nM
- AC50 (MYB [2]): 1000 to 10000 nM
- IC50 (HTT [3]): < 100 nM
- IC50 (SMN2): < 100 nM
- IC50 (MYB [4]): 100 to 1000 nM
- IC50 (Target C): 100 to 1000 nM

Compound: COc1cc(-c2ccc3c(c2)COc2nc(N4CCN[C@@H](C5CC5)C4)ccc2-3)cnn1 [Compound 296]
- IC50 (HTT [1]): 100 to 1000 nM
- AC50 (HTT [1]): 100 to 1000 nM
- IC50 (MYB [2]): 100 to 1000 nM
- AC50 (MYB [2]): 100 to 1000 nM
- IC50 (HTT [3]): 100 to 1000 nM
- IC50 (SMN2): < 100 nM
- IC50 (MYB [4]): 100 to 1000 nM
- IC50 (Target C): 100 to 1000 nM

Compound: COc1cc(-c2ccc3c(c2)COc2nc(N4CCN[C@H](C5CC5)C4)ccc2-3)cnn1 [Compound 297]
- IC50 (HTT [1]): < 100 nM
- AC50 (HTT [1]): 100 to 1000 nM
- IC50 (MYB [2]): 100 to 1000 nM
- AC50 (MYB [2]): 100 to 1000 nM
- IC50 (HTT [3]): < 100 nM
- IC50 (SMN2): < 100 nM
- IC50 (MYB [4]): 100 to 1000 nM
- IC50 (Target C): 100 to 1000 nM
